Laboratory results as given in patent US20240228542A1, “LYTIC DOMAIN FUSION CONSTRUCTS, CHECKPOINT INHIBITORS, AND METHODS OF MAKING AND USING SAME” (A28 Therapeutics Inc., priority 2020, published 2024).

How the values were obtained:
[1] = test system: EMT-6 murine mammary carcinoma; test: EMT-6 murine mammary carcinoma syngeneic model, tumor growth delay; format: in vivo, BALB/c mice; details: for median TTE: control 16.5 days
Procedure: The present study consisted of six efficacy groups (n=10) and three sampling groups (n=5) of female BALB/c mice implanted with EMT-6 tumor cells (mean volume: 61-85 mm^3). Dosing was initiated on Day (D) 1 of the study, unless otherwise noted. […] Anti-CTLA-4 was administered i.p. at 100 μg/animal on Day 2 and 50 μg/animal on Day 5 and Day 8.
Group 1 mice served as controls and received i.v. saline (vehicle), qod×to end. Group 2 received anti-CTLA-4. Group 3 received Phor 18-LHRH at 0.4 μg/animal qod×8 followed by 20 μg/animal qod to end (starting on Day 17). […] Group 5 received Phor 18-LHRH at 0.4 μg/animal q.o.d.×8 followed by 20 μg/animal qod to end (starting on Day 17) in combination with anti-CTLA-4.
The study endpoint was a tumor volume of 2000 mm^3 or 45 days, whichever came first. Tumor measurements were taken twice weekly until D45 with individual animals exiting the study upon reaching the tumor volume endpoint.
Efficacy was determined from tumor growth delay (TGD), the increase in median time-to-endpoint (TTE) in treated versus control mice, and from comparison of survival curves using logrank analysis. Response was additionally evaluated based on the number of study survivors, partial regression (PR) and complete regression (CR) responses, and logrank significance of differences in survival. Tolerability of the various treatments was assessed by body weight (BW) measurements and frequent observation for clinical symptoms and treatment-related (TR) side effects.
Four sampling groups consisting of 5 animals each were included in this study: saline controls. […] Animals in these groups were sacrificed on day 17, tumors were excised, formalin fixed and paraffin embedded to obtain H&E stained sections for histological evaluation of the tumors. Tumor samples were collected for analysis and stained with hematoxylin & cosin for pathological evaluation.

MDA-MB-231 = test: Cytotoxicity in MDA-MB-231 breast cancer cells; format: cell-based; details: MDA-MB-231 breast cancer cell line; read-out: IC50 in Human Cancer Cell Lines
Procedure: MDA-MB-435S.luc cells were grown in Leibovitz's L 15 medium, 10% fetal bovine serum, 0.01 mg/ml bovine insulin, 100 IU/ml penicillin, 100 microg/ml streptomycin. The cells were cultured in tight closed flasks. The incubations were conducted using 96 well plates at 10,000 cells per well. Cells were typically seeded into 96 well plates and media was replaced after 48 hours of incubation. Each assay was conducted at increasing concentrations of 0, 0.001, 0.01, 0.05, 0.1, 0.5, 1, 2, 5, 10 and 100 micromolar doses of lytic peptide-binding domain conjugate. Each lytic peptide-binding domain conjugate provided in lyophilized form and was freshly dissolved in saline and added to cells. The duration of incubation was typically 24 h, and cell viability assays were conducted using formazan conversion assays (MTT assay). Controls contained saline or 0.1% triton as reference for 0 and 100% cell death, respectively.
To ascertain the IC50 of various fusion constructs on different human cancer cell lines compared to cisplatinum, IC50 of fusion constructs were evaluated as in Table 3.

MDA-MB-435S xenograft = test: MDA-MB-435S xenograft, kinetics after a single injection; format: in vivo, Nu/Nu mice; details: 0.2 and 2 mg/kg
Procedure: In brief, Nu/Nu female mice, outbred strain, age 5 weeks (Charles River), were injected (s.c.) into the interscapular region with a MDA-MB-435S (passage #249)/Matrigel suspension (2.4×10^6 cells/mouse) as described in Example 10. Phor 18-LHRH (338613) (ID: 338613 lot #P080401) (0.2, and 2 mg/kg) were reconstituted in USP saline prior to dosing. The doses were given as a single bolus intravenous injection via lateral tail vein.
Mice were sacrificed 1, 2 and 16 hours after treatment with Phor 18-LHRH (338613) or saline. At study endpoint body weight, tumor weights were determined, and tumors were fixed in phosphate buffered 10% formalin.

MCF-7 xenograft = test: MCF-7 breast cancer xenograft; format: in vivo, nude mice; details: MCF-7, 2 × 3 wk, 19 d
Procedure: In vivo efficacy studies were conducted as monotherapy, or a combination therapy with standard of care treatments in nude mice bearing human melanoma xenografts; MDA-MB-435S.luc (s.c.), human breast cancer xenografts MCF-7 (estrogen receptor alpha positive), human ovarian cancer xenografts; OVCAR-3, (s.c.), human prostate cancer xenografts; PC-3 (androgen receptor negative).
Mice were sacrificed one week after the last injection and blood collected for chemistry panel, tumor weights and body weights were recorded. Part of the tumors were fixed in PBS buffered 10% formalin for histological evaluation.

IG10 = test: Cytotoxicity in IG10 murine ovarian cancer cells (24 h); format: cell-based; details: IG10, 24 h; read-out: In vitro activity (IC50)
Procedure: Murine ovarian cancer cell lines (ID8, IG10, IF5, and 2Cl2) were grown in RPMI 1640 media with 10% Fetal Bovine Serum. Cells were typically seeded (3000 cells per well) into 96 well plates and media was replaced after 48 hours of incubation. […] Phor18-LHRH was provided in lyophilized form was dissolved in saline and added to cells. The duration of incubation was 24 h at 37° C. Cell viability was assessed after 24 hours using a luminometric assays (Promega, CellTiter-0Glo 2.0, G9243). Controls contained saline or 0.1% triton as reference for 0 and 100% cell death, respectively.
Data were processed and analyzed using GraphPad Prism version 7.00 for Windows (GraphPad Software, San Diego California). Statistical analysis for significance was determined by a two-tailed Student's T-test. Each study was conducted to achieve an […] of at least 6.
In vitro activities were expressed as IC50 values for each cell line, time point and compound tested that were calculated using the Hill equation (Graph Pad Prizm software).

[2] = Phor18-LHRH at 0.4 μg and 20 μg/animal (alone or with anti-CTLA-4)
[3] = Phor18-LHRH at 10 μg and 60 μg/animal (alone or with anti-CTLA-4)

KFAKFAKKFAKFAKKFAKQHWSYGLRPG [Phor18-LHRH]
TGD [1, 2]: 6%
median TTE [1, 2]: 17.5 days
TGD [1, 3]: 5%
median TTE [1, 3]: 17.4 days
histological evaluation of tumors ([1]; animals sacrificed on day 17): inflammatory immune cell infiltration and necrosis
IC50 (MDA-MB-231): 5.5 ± 1.2 µM
time to destruction of tumors after injection (MDA-MB-435S xenograft): 1 h
Median Tumor Weight vs Saline P < 0.05 (dose, growth delay) (MCF-7 xenograft): 0.02 mg/kg
IC50 (IG10): 1.03 µM
